Source: patent publication US20140377324A1, “Pharmaceutical Composition Comprising miRNA-100 And Its Use In The Modulation of Blood Vessel Growth and Endothelial Inflammation” (Universitatsklinikum Freiburg, priority 2009, published 2014)
“Also recorded” adds a separate entry of the source.

System: miR-100
Experiment: miR-100 expression in endothelial cells after cytokine, inhibitor or statin exposure (stem loop Taqman PCR)
Format: cell-based, human
Conditions: for miR-100 expression: endothelial cells exposed to cytokine, TNF-α 10 ng/ml for different time points (FIG. 16A)
Source text: MicoRNA expression was validated by quantitative stem-loop PCR technology (TaqMan MicroRNA Assays, Applied Biosystems, Foster City, Calif.). The use of target-specific reverse transcription primers and TaqMan hybridization probes allows the specific detection of mature microRNAs. MicroRNA expression was normalized to the expression of the small RNAs rnu19 and rnu48.
To search for possible inducers of miR-100 downregulation in endothelial cells, several pro-angiogenic or pro-arteriogenic cytokines were screened for effects on miR-100 expression.
FIG. 16 [A]: Human endothelial cells were stimulated 10 ng/ml TNF-α for different time points. RNA was isolated and quantified using Taqman based Stem loop PCR.
FIG. 16 [B]: The NF-kappaB inhibitor PS1145 (10 μM) was added to TNF-α stimulated (10 ng/ml) human endothelial cells and the miR-100 expression level, compared to controls without PS1145, were measured using Stem loop Taqman PCR.
Human endothelial cells were stimulated with 1 μM Simvastatin for 48 h.

Compound | TNF-alpha effect on miR-100 expression (PS1145 10 μM, TNF-α 10 ng/ml, human endothelial cells, FIG. 16B) | miR-100 expression | miR-100 expression (listed as Tumor necrosis factor (TNF)-alpha) | dose dependency of miR-100 decrease (endothelial cells, TNF-alpha concentrations tested)
O=C(Nc1cc(Cl)cc2c1[nH]c1cnccc12)c1cccnc1 [PS1145, reference compound] | abrogated the TNF-alpha effect; also recorded: attenuates the regulatory effect of TNF-alpha on miR-100 levels |  |  | 
VEGF |  | no sustained and reproducible effect |  | 
FGF2: pro-angiogenic or pro-arteriogenic cytokine |  | no sustained and reproducible effect |  | 
TGF-beta1: pro-angiogenic or pro-arteriogenic cytokine |  | no sustained and reproducible effect |  | 
TNF-alpha |  | significant downregulation of miR-100 | sustained downregulation of miR-100 | trend for a more pronounced decrease of miR-100 expression with higher doses
